Data from patent US11963996B2, “Method of treating knee pain” (ORTHOTROPHIX, Inc., priority 2018, dated 2024).
“Also recorded” adds a separate entry of the source.

Experiments:
alveolar bone = assay: Phase 2 study of alveolar bone formation; type: in vivo, human; details: drug vs placebo
Method: Based on these safety and bone and dentin formation data, TPX-100 was tested in two Phase 2 studies for alveolar bone and dentin formation activities, respectively.

rat long bone fracture = details: cited from earlier work
[1] = test system: subjects with bilateral patello-femoral knee osteoarthritis; assay: Phase 2 randomized double-blind placebo-controlled study of TPX-100: patient-reported outcomes (KOOS, WOMAC); type: in vivo, human; details: for KOOS ADL (knee function in activities of daily living) improvement over baseline / WOMAC Function subscale improvement: 200 mg intra-articular x4 once weekly, 6 and 12 months; for KOOS ADL (knee function in activities of daily living) improvement over baseline: Index vs Control (placebo) Knees
Method: A multicenter, randomized double-blind, placebo-controlled study was designed to investigate the safety, tolerability, pharmacokinetics, and efficacy of TPX-100 administered in four weekly doses in subjects with bilateral patello-femoral knee osteoarthritis. The study was conducted under an open IND (investigational new drug application) at CDER (Center for Drug Evaluation and Research) of the U.S. FDA (The United States Food and Drug Administration) in compliance with GCP (Good Clinical Practice) and ICH (International Conference on Harmonization of Technical Requirements for Registration of Pharmaceuticals for Human Use) guidelines. Eighteen (18) orthopedic, rheumatologic and family practice centers in the U.S. participated in the study.
The study was divided into Part A and Part B. The Part A was designed to evaluate safety of intra-articular (I.A.) administration of TPX-100 at different dosing levels (20, 50, 100, or 200 mg per injection in sequential cohorts) in the subjects with osteoarthritis of the knees and to select a dose for Part B. Part B was to evaluate safety and efficacy of the selected dose of TPX-100.
Subjects in Part A were enrolled in sequential cohorts and randomized to receive 20, 50, 100 or 200 mg of TPX-100 in one knee (Index Knee) and identical placebo in the contralateral (Control) knee. Subjects, sites and sponsor and central MRI readers were blinded as to treatment assignment. A Safety Review Committee (SRC) evaluated safety in each dosing cohort. The SRC assessed safety and determined whether the next higher dosing regimen could be enrolled. All dosing cohorts in Part A were completed and analyzed with regard to safety prior to dose selection and initiation of Part B.
Part A included four (4) intra-articular (I.A.) injections, one per week, in sequential dosing cohorts of 20, 50, 100 and 200 mg TPX-100 versus placebo. Six (6) subjects were enrolled in 20, 50, and 100 mg cohorts, respectively, and nine (9) subjects were enrolled in the 200 mg cohort.
The 200 mg dose was selected for Part B based on safety review and the approval of the SRC. […] Per the Statistical Analysis Plan, these subjects were combined with the nine subjects in the 200 mg cohort of Part A for the efficacy analysis. In total, data from 93 subjects was analyzed for drug efficacy, each of whom received 4 once-weekly injections of TPX-100, 200 mg/dose, in the Index knee and identical placebo in the contralateral knee, as randomly assigned.
In both Part A and Part B, subjects received 4, once-weekly doses of active drug in the knee randomized to active drug in the Index knee and placebo in the contralateral (Control) knee, delivered by the intra-articular route. No other doses of drug or placebo were administered. All subjects visited their respective clinical sites at 3, 6, and 12 months after the first dosing for their safety and efficacy assessments.
On the first dosing day, the randomized subjects were assessed by physical examinations and vital signs. Further, they completed the Knee injury and Osteoarthritis Outcome Score (KOOS), which includes the Western Ontario and McMaster Universities Osteoarthritis Index (WOMAC). The KOOS questionnaire assesses knee-specific activities of daily living, sports and recreation, knee-related quality of life, other symptoms such as stiffness, and knee pain. The KOOS has been used extensively in longitudinal studies of knee osteoarthritis. After assessments were completed, subjects received one intra-articular injection in each knee, with each injection prepared from the vial(s) marked for that knee. One knee received TPX-100, and the contralateral knee received placebo with subject, site, and sponsor blinded to treatment assignment. Subjects were monitored for adverse events during the injections and for a few hours after the injections. Vital signs were also monitored after the injections. […]

[2] = 200 mg IA x4, Index vs Control Knees, 12 months

TPX-100: synthetic peptide consisting of 23 amino acids, TDLQERGDNDISPFSGDGQPFKD, derived from human Matrix Extracellular Phosphoglycoprotein (MEPE)
Alveolar bone formation (alveolar bone): did not show a difference between drug vs. placebo-exposed groups
Tolerability in in vivo bone formation and dentin formation studies (rat long bone fracture; rat bone formation and dentin formation studies): well tolerated
Bone fracture healing (rat long bone fracture; subcutaneous injection): acceleration of bone fracture healing
KOOS Sports and Recreation subscale improvement ([1]; 200 mg IA x4, Index vs Control Knees, 6 months): clinically meaningful and statistically significant improvement
KOOS Knee-related QOL subscale improvement [1, 2]: clinically meaningful and statistically significant improvement
KOOS Pain subscale improvement [1, 2]: only a statistical trend (p<0.09) of improvement; also recorded: clinically meaningful improvement in Index Knees as compared to Control Knees at 12 months, with a trend towards statistical significance (p<0.09)
Pain Frequency (KOOS Pain question 1) [1, 2]: statistically significant improvement in Index Knees as compared to Control Knees (p<0.05); also recorded: significantly reduced (p<0.05)
Pain going up or down stairs (KOOS Pain question) [1, 2]: statistically significant improvement in Index Knees as compared to Control Knees (p<0.05); also recorded: significantly improved (p<0.05)
WOMAC Pain domain improvement [1, 2]: clinically meaningful improvement in Index Knees at 12 months compared with Control knees, although the difference did not reach statistical significance
KOOS ADL (knee function in activities of daily living) improvement over baseline [1]: clinically meaningful and statistically significant (p<0.05) improvements
KOOS ADL (knee function in activities of daily living) improvement over baseline ([1]; listed as peptide of SEQ ID No. 1): clinically meaningful and statistically significant (p=0.008) improvement
WOMAC Function subscale improvement ([1]; Index vs Control Knees): same robust improvement in Index Knees as compared to Control Knees
WOMAC Function subscale improvement ([1]; Index vs Control Knees, listed as peptide of SEQ ID No. 1): clinically meaningful and statistically significant (p=0.008) improvement
WOMAC Total score improvement ([1]; Index vs Control Knees, 6 or 12 months, or both): significant improvements in favor of Index knees
Decrease in use of analgesics by participants ([1]; overall, over the 12-month study period): 62.5%
Pain frequency in responders, baseline to 12 months ([1]; responders to treatment, 12 months): decreased from daily pain at baseline to semi-monthly pain at 12 months
Pain frequency in responders, baseline to 12 months ([1]; responders to treatment, 12 months, listed as peptide of SEQ ID No. 1): semi-weekly
Improvement of pain frequency score in responder group ([1]; responders to treatment, baseline score 3 (daily), at 12 months): approximately 1.5 points
